Values joined by “and” are separate entries in the source; they are usually repeats but may differ in a detail not shown here. Identical values can stand only once.
What was measured:
[1] = molecular target: T1, delta opioid receptor (DOR) (Homo sapiens, UniProt P41143); assay: Competitive radioligand binding, DOR ([3H]NTI); conditions: read-out: Ki (nM) ± SEM
T1 construct: expressed in transfected cells; host or cells: CHO cells (membranes)
Procedure: (§1) The details of the Radioligand Binding and Functional Studies that were used were described previously.^19 Chinese hamster ovarian (CHO) cell lines were used as monoclonal opioid receptor expressing cells. The μ, δ, and κ opioid receptors were labeled with [^3H]naloxone, ^3H-naltrindole ([^3H]NTI) and ^3H-nor-Binaltorphimine ([^3H]norBNI). The opioid receptor expressing cell membranes were incubated with the radioligands at different concentrations of the drug under investigation at 30° C. for 1 h. With the absence and presence of 10 μM naltrexone, specific binding was got as the difference in binding obtained. The specific binding of the drugs to the radioligand was calculated from data using linear regression analysis of Hill plots.
(§2) All samples were assayed in triplicate and repeated at least twice for a total of 3 independent determinations. Results were reported as mean values±SEM. Concentration-effect curves were fit by nonlinear regression to a one-site binding model, using GraphPad Prism software, to determine EC50 and Emax values. IC50 values were obtained from Hill plots and analyzed by linear regression using Microsoft Excel software. Binding Ki values were determined from IC50 values using the Cheng-Prusoff equation: Ki=IC50/l+([L]/KD), where [L] is the concentration of […] and KD is the KD of the radioligand.

colonic motility = assay: Colonic bead expulsion assay; format: in vivo, mice
Procedure: Mice were habituated and fasted as described above for the gastrointestinal transit analysis. […] At 20 min post-injection, animals were anesthetized with isoflurane (1-2 min) to insert a single 2-mm glass bead into the distal colon at a distance of 3 cm from the anus. Bead insertion was accomplished using a glass rod with a fire-polished end to avoid tissue damage and marked at 3 cm.^25 After bead insertion, mice were placed in individual cages and the time to bead expulsion was monitored. Animals were monitored for a maximum of 2 h unless bead expulsion occurred sooner.

MOR = MOR (Mus musculus, UniProt P42866); assay: [35S]GTPγS-binding assay, low MOR-expressing CHO cell line membranes; format: biochemical; set-up: expressed in transfected cells; host or cells: CHO cells (membranes)
Procedure: [^35S]GTPγS-binding Assays using a Low MOR-expressing CHO Cell Line: Cell membranes were incubated with varying concentrations of BNAP or 3 μM DAMGO (standard full agonist at MOR) in the presence of 10 μM GDP and 0.1 nM [^35S]GTPγS in assay buffer (50 mM Tris-HCl, pH 7.4, 3 mM MgCl2, 0.2 mM EGTA and 100 mM NaCl) for 90 min at 30° C. Nonspecific binding was determined using 10 μM unlabeled GTPγS. The incubation was terminated by rapid vacuum filtration through GF/B glass fiber filters. Bound radioactivity was determined by liquid scintillation spectrophotometry. Additional methodological details of the assay were described previously.^9
as §2

mu opioid receptor (MOR) = molecular target: T2, mu opioid receptor (MOR) (Mus musculus, UniProt P42866); assay: Competitive radioligand binding, MOR ([3H]naloxone); conditions: mean ± SEM of three experiments
T2 construct: expressed in transfected cells; host or cells: CHO cells (membranes)
Procedure: as §1, §2

morphine antinociception = assay: Warm water tail immersion (tail flick) test; format: in vivo, Swiss Webster mice
Procedure: Male Swiss Webster mice (Harlan Laboratories, Indianapolis, Ind.) weighing 25-30 g were housed 5 to a cage in animal care quarters and maintained at […] on a 12 h light-dark cycle. Food and water were available ad libitum. The mice were brought to a test room (22±2° C., 12 h light-dark cycle), marked for identification and allowed 18 h to recover from transport and handling. Protocols and procedures were approved by the Institutional Animal Care and Use Committee (IACUC) at Virginia Commonwealth University Medical Center and comply with the recommendations of the IASP (International Association for the Study of Pain).
The warm water tail-immersion test was performed according to previously described methods using a water bath with the temperature maintained at 56±0.1° C.^20 Briefly, before giving the mice injections, a baseline (control) latency was determined. Only mice with a control reaction time of 2 to 4 s were used. The average baseline latency for these experiments was 3.0±0.1 s. The test latency after drug treatment was assessed at the appropriate time, and a 10 s maximal cutoff time was imposed to prevent tissue damage. Antinociception was quantified according to established procedures as the percentage of maximum possible effect (% MPE), which was calculated as follows: % MPE=[(test latency−control latency)/(10−control latency)]×100.^21 Percentage MPE was calculated for each mouse, using at least six mice per group.
Intracerebroventricular (ICV) injections were performed as described previously.^22 Mice were anesthetized with 2.5% isoflurane and a horizontal incision was made in the scalp. A needle was inserted to a depth of 3 mm into the lateral ventrical (2 mm rostral and 2 mm lateral at a 45° angle from the bregma). At intervals, 5 μL injections of drug or vehicle were made using this guide insertion to the same depth using a needle with a guard in nonanesthetized animals.^22, 23 Animals underwent the anesthetized surgery in the morning of the experiment and were then injected with drug at intervals indicated in the text without additional anesthesia. Immediately after testing, the animals were euthanized to minimize any type of distress, according to IACUC guidelines.

KOR = molecular target: T3, KOR (Homo sapiens, UniProt P41145); assay: [35S]GTPγS-binding assay, KOR-expressing CHO cell membranes; format: biochemical
T3 construct: expressed in transfected cells; host or cells: CHO cells (membranes)
Procedure: [^35S]-GTPγS-Binding Assays using DOR- or KOR-Expressing CHO Cell Lines: Cell membranes (10 μg protein) were incubated with 10 μM GDP and 0.1 nM [^35S]-GTPγS in assay buffer in the presence and absence of varying concentrations of BNAP, 3 μM SNC80 (standard full agonist at DOR) or 3 μM U50,488H (standard full agonist at KOR) for 90 min at 30° C. Nonspecific binding was determined with 10 μM unlabeled GTPγS. The reaction was terminated and bound radioactivity determined as described above and previously.^9
as §2

[2] = tested on: mouse distal colon circular muscle; assay: Colon circular muscle isometric tension recordings, distal colon
Procedure: Mice were euthanized by cervical dislocation. The colon was dissected, flushed of its contents, and trimmed of mesentery. […] The tissues, 0.5 cm in length, were suspended vertically along the axis of the circular muscle with a metal triangle tied to a hook under 1 g of passive tension in 15 mL siliconized organ baths.
Data are presented as the mean±S.E.M, values of P≤0.05 were considered significant.

T3 sequence (P41145 whole entry): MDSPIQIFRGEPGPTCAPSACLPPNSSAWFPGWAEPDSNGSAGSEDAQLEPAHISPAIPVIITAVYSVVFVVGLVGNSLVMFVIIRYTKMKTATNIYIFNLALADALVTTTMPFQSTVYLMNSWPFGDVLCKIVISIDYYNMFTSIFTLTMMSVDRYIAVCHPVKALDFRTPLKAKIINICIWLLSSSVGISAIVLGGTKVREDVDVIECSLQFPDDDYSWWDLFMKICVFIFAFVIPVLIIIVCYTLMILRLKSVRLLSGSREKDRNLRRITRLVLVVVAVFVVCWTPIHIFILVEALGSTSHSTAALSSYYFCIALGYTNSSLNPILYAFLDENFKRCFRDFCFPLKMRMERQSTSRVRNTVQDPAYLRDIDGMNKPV
MOR, sequence (P42866 whole entry): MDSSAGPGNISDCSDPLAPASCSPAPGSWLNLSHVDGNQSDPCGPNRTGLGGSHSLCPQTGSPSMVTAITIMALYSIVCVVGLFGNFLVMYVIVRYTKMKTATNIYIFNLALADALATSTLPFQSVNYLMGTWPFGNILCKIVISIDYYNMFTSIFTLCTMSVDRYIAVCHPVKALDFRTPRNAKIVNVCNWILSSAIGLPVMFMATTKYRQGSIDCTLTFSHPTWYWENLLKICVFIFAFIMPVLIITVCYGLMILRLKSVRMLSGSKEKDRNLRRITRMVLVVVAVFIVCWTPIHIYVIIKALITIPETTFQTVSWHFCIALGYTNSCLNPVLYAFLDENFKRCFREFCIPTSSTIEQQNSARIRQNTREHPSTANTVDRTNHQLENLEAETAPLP
T2 sequence (P42866 whole entry): as above
T1 sequence (P41143 whole entry): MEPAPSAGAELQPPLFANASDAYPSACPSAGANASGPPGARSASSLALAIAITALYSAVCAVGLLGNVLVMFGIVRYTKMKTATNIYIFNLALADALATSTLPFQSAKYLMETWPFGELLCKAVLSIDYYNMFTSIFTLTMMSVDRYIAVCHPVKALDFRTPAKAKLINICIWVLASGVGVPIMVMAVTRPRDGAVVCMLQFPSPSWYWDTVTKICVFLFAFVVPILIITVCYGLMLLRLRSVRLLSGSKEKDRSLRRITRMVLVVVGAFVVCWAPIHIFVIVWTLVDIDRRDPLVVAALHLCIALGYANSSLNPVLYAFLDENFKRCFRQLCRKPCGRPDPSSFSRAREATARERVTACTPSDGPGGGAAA

`O=C(N[C@@H]1CC[C@@]2(O)[C@H]3Cc4ccc(O)c5c4[C@@]2(CCN3CC2CC2)C1O5)c1cc[n+](Cc2ccccc2)cc1` (stereo partly shown) [BNAP] was tested, and the Ki [1] was 722 ± 65 nM, the bead expulsion time (colonic motility; BNAP alone 10 mg/kg, naive mice 17 min) was 43 min and the “antagonism of morphine's effect on bead expulsion” value (colonic motility; BNAP concurrently or 5 or 15 min before morphine) was “no significant antagonism of morphine's effects was observed”. For the same compound, the EC50 (MOR; EC50 (nM), 35S-GTP[γS]) was 4.84 nM and 4.8 nM, the “% max of agonist” value (MOR; Emax relative to full agonist DAMGO) was 14.6±0.9% and the Ki (mu opioid receptor (MOR)) was 0.76 ± 0.09 nM. For the same compound, the “antinociception of compound alone” value (morphine antinociception; 1.0 μg/5 μL ICV, compared to morphine alone) was “did not produce significant antinociception”, the “antagonism of morphine antinociception” value (morphine antinociception; 10 mg/kg s.c., any morphine dose tested) was “did not significantly antagonize morphine antinociception” and the “antinociceptive effect of compound alone” value (morphine antinociception; 10 mg/kg s.c., warm water tail flick, mice) was “did not produce significant antinociceptive effects”. The “dose giving complete reversal of morphine antinociception” value (morphine antinociception; ICV, dose dependent reversal) was 0.3 μg/5 μL, the EC50 (KOR; 35S-GTP[γS]) was 2.9 ± 1.1 nM and the “% max of agonist” value (KOR; Emax relative to full agonist U50,488H) was 45.9±1.7%. The “inhibition of morphine-induced contractions” value ([2]; 1 nM antagonist, distal colon) was “neither NAP nor BNAP showed significant inhibition of morphine-induced contractions”, the “antagonism of morphine effects” value ([2]; 10 nM antagonist, distal colon) was “neither NAP nor BNAP showed significant antagonism of morphine effects” and the “morphine pD2 in presence of antagonist” value ([2]; 100 nM antagonist, distal colon (naive 6.0)) was 5.2. The “contractions induced by compound alone” value ([2]; up to 30 μM, distal colon preparation) was “Neither BNAP nor NAP alone at concentrations up to 30 μM induced contractions”.
